Test results as given in patent US11446285B2, “Methods for treating systemic lupus erythematosus” (University of Southern California, priority 2017, dated 2022).
“Also recorded” adds a separate entry of the source.

What was measured:
Format in all cases: in vivo
MRL-lpr mice [1] = assay: Protein urine scores in MRL-lpr mouse model of SLE; details: once daily s.c. for 6 weeks from 8 weeks of age, A(1-7) 0.5 mg/kg, Compound 7 2 mg/kg, compared to saline treated MRL-lpr mice
Experimental: Protein urine scores. At necropsy a final measurement or proteinuria was done using Urinalysis Reagent Strips (Mountainside Medical Equipment; Marcy, N.Y.). Protein scores signify the level of protein measured in the urine of each mouse and are scored as; 1-15 mg/dl protein, 2-30 mg/dl protein, 3-100 mg/dl protein and 4-300 mg/dl protein.
(§1) Our study uses the MRL/MpJ-Fas^lpr/J (MRL-lpr) as a mouse model of SLE and MRL/MpJ mice as controls (control mice do develop SLE but at a much later stage in life). These mice were broken into 4 groups that received once daily subcutaneous injections of treatment starting at 8 weeks of age for 6 weeks: a MRL/MpJ group (n=5) dosed daily with saline, an MRL-lpr group (n=8) dosed with saline, an MRL/MpJ group (n=8) dosed with 0.5 mg/kg of A(1-7), and an MRL/MpJ group (n=8) dosed with 2 mg/kg of Compound 7 (in an aqueous Tween 20 formulation). Throughout the study, the mice were monitored for proteinuria and face lesions. At necropsy, the kidneys and peripheral blood were harvested. The kidneys sections were stained with hematoxylin & eosin (H&E) for evaluation of glomerular health. Blood samples were processed and the plasma was stored at −20° C. for measurement of anti-dsDNA antibodies.

MRL-lpr mice [2] = assay: Glomerulonephritis scores (H&E kidney sections) in MRL-lpr mouse model of SLE; details: once daily s.c. for 6 weeks, A(1-7) 0.5 mg/kg, Compound 7 2 mg/kg, compared to saline treated MRL-lpr mice
Experimental: Glomerulonephritis scores. Twenty glomeruli from kidney sections stained with H&E were scored for each mouse and a mean score was calculated. The glomerulonephritis score was based on a previously published score of 0-4 based on histopathological changes^6. The scores were defined as: 0, kidney without glomerular lesions; 1, minimal thickening of the mesangium; 2, noticeable increase in both mesangial and glomerular capillary cellularity; 3, preceding conditions, along with superimposed inflammatory exudates and capsular adhesions; 4, obliteration of the glomerular architecture included >70% of glomeruli.
as §1, with “Blood samples were processed and the plasma was stored at −20° C. for measurement of anti-dsDNA antibodies.” left out

MRL-lpr mice [3] = assay: Face rash scores in MRL-lpr mouse model of SLE; details: scored 19, 25, 30, 37 and 40 days after start of treatment, A(1-7) 0.5 mg/kg, Compound 7 2 mg/kg s.c. daily, compared to saline treated MRL-lpr mice
Excerpt: Face rash scores. Mice were monitored daily for skin lesions. Scores of lesions of the face were taken 19, 25, 30, 37 and 40 days after the start of treatment; pictures were taken at different time points throughout the study. Face rash scores were based on location and extent of inflammation and hair loss as follows: 0, no noticeable irritation; 1, little redness, no hair loss or inflammation; 2, minimal rash, little hair loss or inflammation; 3, moderate rash, increased hair loss, light inflammation; 4, pronounced rash, near total hair loss and obvious inflammation; 5, rash is spreading up to the top of the face; 6, obvious wound above nose.
as §1

MRL-lpr mice [4] = assay: Lymph node weights (inguinal and axillary) in MRL-lpr mouse model of SLE; details: 6 weeks of treatment, A(1-7) 0.5 mg/kg, Compound 7 2 mg/kg s.c. daily, compared to saline treated MRL-lpr mice
Excerpt: Lymph node weights. At necropsy, inguinal and axillary lymph nodes were dissected and trimmed of any surrounding fatty tissues. They were then weighed using an Adventurer precision balance (Ohaus Corporation, Parsippany, N.J.).
as §1

MRL-lpr mice [5] = assay: Anti-dsDNA IgG titers in plasma (ELISA) in MRL-lpr mouse model of SLE; details: plasma at necropsy after 6 weeks of treatment, A(1-7) 0.5 mg/kg, Compound 7 2 mg/kg s.c. daily, compared to saline treated MRL-lpr mice
Experimental: Anti-dsDNA IgG titers. Peripheral blood was collected at necropsy by cardiac puncture with a 1 mL syringe fitted with a 22G needle, transferred into 2 ml K3E K3EDTA VACUETTE® tubes, and stored on ice. The tubes were then spun at 1,500 RPM for 15 min at 4° C. The plasma (top layer) was collected and stored at −20° C. The plasma was then diluted at 1:100 and used in a Mouse Anti-DNA IgG Antibody ELISA Kits (Chondrex Inc, Redmond, Wash.). The average concentration of duplicate samples was calculated against a standard curve and averaged for each mouse.
as §1, with “Blood samples were processed and the plasma was stored at −20° C. for measurement of anti-dsDNA antibodies.” left out

Molecule	protein urine score (proteinuria) at final measurement (MRL-lpr mice [1])	glomerulonephritis score (glomerular pathologies) (MRL-lpr mice [2])	face rash score (inflammation and hair loss) (MRL-lpr mice [3])	face rash score (inflammation and hair loss) (MRL-lpr mice [3]; listed as compound 7)	inguinal and axillary lymph node weight (size) at necropsy (MRL-lpr mice [4])	concentration of circulating anti-dsDNA IgG antibodies in plasma (MRL-lpr mice [5])
CCCCOC(=O)NS(=O)(=O)c1ccc(OC(F)(F)F)cc1-c1ccc(Cn2ccnc2)cn1 [Compound 7]	significantly lower protein scores	significantly reduced the glomerular pathologies	significantly lower only at day 19 and 37	significantly less overall pathologies	reduced the size of both lymph nodes; also recorded: reduced the size but not significantly	significantly lower levels of circulating IgG antibodies against dsDNA; also recorded: significantly lower concentrations
Asp-Arg-Val-Tyr-Ile-His-Pro (DRVYIHP) [A(1-7), endogenous Mas receptor ligand angiotensin 1-7]	significantly lower protein scores	significantly reduced the glomerular pathologies	significantly less overall pathologies; also recorded: significantly lower score than the saline treated MRL-lrp mice throughout the study		reduced the size of both lymph nodes; also recorded: significantly smaller	significantly lower levels of circulating IgG antibodies against dsDNA; also recorded: significantly lower concentrations
